Laboratory results published in the supplement of paper PMC4977894.
± gives the standard deviation of the averaged measurements.

Tests used:
[1] = system: Homo sapiens (human subject panel, olfactory perception); experiment: perceived odor pleasantness rating (rating 0-100); higher = more pleasant
Procedure, shortened: (§1)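 Fifty-five healthy human subjects aged 18–50 took part, and the six lowest performers were excluded. Each molecule was diluted in paraffin oil at high and low concentrations, and 1 mL was sniffed in randomized order over ten visits of 100 stimuli each. Subjects who reported smelling a stimulus rated it on a computerized slider that started at 50 and had to be moved, with positions converted to a 0–100 scale. The familiarity, intensity and pleasantness values are averages across subjects.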

[2] = system: Homo sapiens (human subject panel, olfactory perception); experiment: perceived odor familiarity rating (rating 0-100); higher = more familiar
Procedure, shortened: as §1

[3] = system: Homo sapiens (human subject panel, olfactory perception); experiment: perceived odor intensity rating (rating 0-100); higher = stronger perceived smell
Procedure, shortened: as §1

[4] = odor dilution in paraffin oil: 1/10
[5] = odor dilution in paraffin oil: 1/1,000
[6] = odor dilution in paraffin oil: 1/100,000
[7] = odor dilution in paraffin oil: 1/10,000,000

Structure (SMILES) | perceived odor pleasantness rating [1, 4] | perceived odor pleasantness rating [1, 5] | perceived odor familiarity rating [2, 4] | perceived odor familiarity rating [2, 5] | perceived odor intensity rating [3, 4] | perceived odor intensity rating [3, 5] | perceived odor pleasantness rating [1, 6] | perceived odor familiarity rating [2, 6] | perceived odor intensity rating [3, 6] | perceived odor pleasantness rating [1, 7] | perceived odor familiarity rating [2, 7] | perceived odor intensity rating [3, 7]
CCCCCCCCCC(=O)O [decanoic acid] | 28.3 ± 26 | 28.7 ± 19 | 47.4 ± 34 | 40.6 ± 29 | 75.9 ± 22 | 50.2 ± 30 |  |  |  |  |  | 
CCCCCCCCCCO [decanol] |  | 38.6 ± 28 |  | 49.6 ± 33 |  | 66 ± 27 | 46.8 ± 25 | 39.4 ± 32 | 29.1 ± 24 |  |  | 
CCCCCC1CCCC(=O)O1 (configuration not stated) [delta-Decalactone] |  | 69.3 ± 22 |  | 62.5 ± 28 |  | 65.7 ± 28 | 72.4 ± 20 | 60.8 ± 29 | 52 ± 28 |  |  | 
CC1CCCC(=O)O1 (configuration not stated) [delta-Hexalactone] |  | 45 ± 25 |  | 38.8 ± 31 |  | 48.4 ± 32 | 50.5 ± 21 | 32.7 ± 28 | 18.4 ± 21 |  |  | 
CCCCCCCCCC1CCCC(=O)O1 (configuration not stated) [delta-Tetradecalactone (replicate)] |  | 41.9 ± 20 |  | 37.7 ± 24 |  | 33 ± 30 | 51.2 ± 20 | 26 ± 28 | 13.9 ± 20 |  |  | 
CCCCCCCCCC1CCCC(=O)O1 (configuration not stated) [delta-Tetradecalactone] |  | 45.5 ± 24 |  | 47.2 ± 27 |  | 33.7 ± 26 | 48.1 ± 22 | 33 ± 25 | 20.7 ± 24 |  |  | 
CCCCCCC1CCCC(=O)O1 (configuration not stated) [delta-Undecalactone] |  | 60.7 ± 31 |  | 51.5 ± 33 |  | 64.9 ± 28 | 60.7 ± 25 | 41.4 ± 30 | 34.4 ± 30 |  |  | 
CCOC(=O)CCC(=O)OCC [diethyl succinate] | 60.9 ± 22 | 57.7 ± 24 | 53.4 ± 30 | 44.4 ± 30 | 70.6 ± 24 | 47.1 ± 29 |  |  |  |  |  | 
COC(=O)CCC(=O)OC [dimethyl succinate] | 49.1 ± 27 | 43.6 ± 22 | 46.2 ± 31 | 43.2 ± 29 | 63.2 ± 28 | 53.9 ± 29 |  |  |  |  |  | 
CCCSSCCC [dipropyl disulfide] |  | 35.9 ± 26 |  | 65.6 ± 31 |  | 79.9 ± 21 | 40.1 ± 28 | 65.5 ± 30 | 59.7 ± 31 |  |  | 
O=C1CCCCCN1 [epsilon-Caprolactam] | 46 ± 25 | 40.9 ± 26 | 31.2 ± 28 | 39.4 ± 35 | 30.6 ± 30 | 31.3 ± 33 |  |  |  |  |  | 
CCO [ethanol] |  | 60.9 ± 23 |  | 41.4 ± 31 |  | 19.5 ± 28 | 49.6 ± 23 | 34.1 ± 28 | 14.2 ± 18 |  |  | 
CCOC(C)=O [ethyl acetate] |  | 45.2 ± 22 |  | 44.2 ± 30 |  | 40.3 ± 29 | 45.7 ± 29 | 40 ± 32 | 19.3 ± 24 |  |  | 
CCCC(=O)OCC [ethyl butyrate] |  | 61.1 ± 33 |  | 65.6 ± 29 |  | 77.8 ± 20 | 59.6 ± 26 | 53.5 ± 30 | 49.6 ± 32 |  |  | 
CCOC(=O)/C=C/c1ccccc1 [ethyl cinnamate] |  | 54.8 ± 26 |  | 43.8 ± 29 |  | 61.5 ± 29 | 63.1 ± 24 | 43.3 ± 27 | 55.2 ± 27 |  |  | 
CCCCCC(=O)OCC [ethyl hexanoate] |  | 78.6 ± 19 |  | 69.4 ± 27 |  | 73.9 ± 20 | 71.6 ± 16 | 56.4 ± 29 | 53.3 ± 28 |  |  | 
CCOC(=O)CC [ethyl propionate] |  | 39.9 ± 31 |  | 50.7 ± 31 |  | 75.7 ± 24 | 31.3 ± 30 | 44.5 ± 34 | 53.9 ± 32 |  |  | 
CCOC(=O)CC(C)O (configuration not stated) [ethyl-3-hydroxybutyrate] |  | 75.4 ± 18 |  | 62 ± 31 |  | 58.1 ± 32 | 42 ± 23 | 37.4 ± 29 | 38.3 ± 32 |  |  | 
CCCC(O)CC(=O)OCC (configuration not stated) [ethyl-3-hydroxyhexanoate] |  | 47.3 ± 27 |  | 54.2 ± 28 |  | 60.3 ± 24 | 54.4 ± 23 | 40.1 ± 31 | 25.1 ± 27 |  |  | 

Structure (SMILES) | perceived odor pleasantness rating [1, 4] | perceived odor pleasantness rating [1, 5] | perceived odor familiarity rating [2, 4] | perceived odor familiarity rating [2, 5] | perceived odor intensity rating [3, 4] | perceived odor intensity rating [3, 5] | perceived odor pleasantness rating [1, 6] | perceived odor familiarity rating [2, 6] | perceived odor intensity rating [3, 6] | perceived odor pleasantness rating [1, 7] | perceived odor familiarity rating [2, 7] | perceived odor intensity rating [3, 7]
CCc1ccccc1 [ethylbenzene] |  | 35.2 ± 25 |  | 51.4 ± 30 |  | 75.5 ± 22 | 50.4 ± 19 | 37 ± 33 | 23 ± 24 |  |  | 
C=CCc1ccc(O)c(OC)c1 [eugenol] |  | 67.6 ± 23 |  | 73.6 ± 26 |  | 74.6 ± 21 | 61.8 ± 25 | 59.6 ± 32 | 60.4 ± 26 |  |  | 
CCCCCCC1CCC(=O)O1 (configuration not stated) [gamma-decalactone] |  | 64.9 ± 27 |  | 51.5 ± 32 |  | 54 ± 28 | 61.4 ± 20 | 46.4 ± 30 | 33.2 ± 28 |  |  | 
CC1CCC(=O)O1 (configuration not stated) [gamma-valerolactone] |  | 51.4 ± 25 |  | 38.9 ± 31 |  | 26.9 ± 30 | 51.3 ± 22 | 29.3 ± 28 | 14.7 ± 20 |  |  | 
CC(C)=CCC/C(C)=C/CO [geraniol] |  | 59.2 ± 25 |  | 51.8 ± 31 |  | 71.8 ± 24 | 62.1 ± 27 | 57 ± 30 | 42.3 ± 30 |  |  | 
CC(=O)OC/C=C(\C)CCC=C(C)C [geranyl acetate] |  |  |  |  |  |  | 54.4 ± 19 | 36.4 ± 31 | 16.3 ± 19 | 47.9 ± 25 | 38.7 ± 32 | 20.4 ± 24
OCC(O)CO [glycerol] | 48.1 ± 31 | 42.7 ± 25 | 33.6 ± 28 | 31.8 ± 30 | 31.2 ± 33 | 26.8 ± 29 |  |  |  |  |  | 
CCCCCCCO [heptanol (replicate)] |  | 48.5 ± 29 |  | 51.9 ± 33 |  | 72.2 ± 24 | 58 ± 23 | 39.9 ± 29 | 29.7 ± 30 |  |  | 
CCCCCCCO [heptanol] |  | 52.7 ± 25 |  | 50.3 ± 30 |  | 62.7 ± 27 | 59.6 ± 23 | 44.9 ± 31 | 30.3 ± 28 |  |  | 
CCCCCCCOC(C)=O [heptyl acetate] | 53.4 ± 32 | 61.6 ± 22 | 55.8 ± 34 | 42.6 ± 31 | 82.2 ± 18 | 37.1 ± 31 |  |  |  |  |  | 
CCCCCCO [hexanol] |  | 58.2 ± 27 |  | 58.7 ± 28 |  | 61.5 ± 29 | 49.4 ± 26 | 42.7 ± 27 | 26 ± 27 |  |  | 
CCCCCCOC(C)=O [hexyl acetate] |  | 63.1 ± 24 |  | 58.2 ± 30 |  | 58 ± 30 | 53.7 ± 23 | 29.9 ± 26 | 12.7 ± 17 |  |  | 
CCCCCCOC(=O)CCC [hexyl butyrate] |  | 34.1 ± 25 |  | 44.1 ± 30 |  | 45.6 ± 34 | 43.9 ± 16 | 35.8 ± 27 | 19.4 ± 21 |  |  | 
CC(C)CCO [isoamyl alcohol] |  | 51 ± 33 |  | 50.8 ± 33 |  | 63.5 ± 32 | 39.2 ± 25 | 25.9 ± 21 | 23.4 ± 26 |  |  | 
CC(=O)OCC(C)C [isobutyl acetate] |  | 56 ± 28 |  | 72.1 ± 24 |  | 75.9 ± 22 | 50 ± 22 | 39.2 ± 27 | 33.5 ± 30 |  |  | 
CC=Cc1ccc(OC(C)=O)c(OC)c1 [isoeugenol acetate] | 58.3 ± 26 | 66.8 ± 25 | 57.1 ± 31 | 58.8 ± 28 | 57.6 ± 30 | 46.1 ± 28 |  |  |  |  |  | 
CC(=O)OCCC(C)C [isopentyl acetate] |  | 59.3 ± 25 |  | 55.5 ± 32 |  | 58.3 ± 31 | 65.2 ± 23 | 51 ± 35 | 45.9 ± 30 |  |  | 
CC(=O)OC(C)C [isopropyl acetate (replicate)] |  | 41.3 ± 23 |  | 46.2 ± 33 |  | 49.4 ± 34 | 49.9 ± 25 | 44.5 ± 32 | 22.7 ± 22 |  |  | 
